Measured values published in patent US20260356804A1, “SODIUM CHANNEL BLOCKING COMPOUNDS, DERIVATIVES THEREOF, AND METHODS OF THEIR USE” (LATIGO BIOTHERAPEUTICS, INC., priority 2022, published 2026).

Each compound was assayed against T1, human Nav1.8/β1 (Homo sapiens, UniProt Q9Y5Y9) (assay: Compound Profiling Human NaV1.8/β1 Cell Line—Sophion QPatch II Assay (automated patch clamp, stably transfected HEK293 cells)). Conditions: not given.
T1 construct: host or cells: HEK293
Assay type: cell-based
Method: Compounds were tested on recombinant human Nav1.8/β1 stably transfected HEK293 (Eurofins, CYL3025, St. Charles, MO) cells using the QPatch II system (Sophion Bioscience A/S, Ballerup—Denmark), an automated patch clamp device. Cells were cultured at 37° C./5% CO2 in DMEM/F-12 supplemented with 10% fetal bovine serum, 1× Non-Essential Amino Acids, and selection antibiotics (0.625 μg/mL Puromycin, 400 μg/mL Geneticin, and 100 μg/mL Hygromycin). One or two days prior to recording, cells were moved to a lower temperature 30° C./5% CO2 incubator to increase surface expression of the channels. On the day of the recordings, cells in culture dishes were washed twice with Ca^2+—Mg^2+ free DPBS and treated with Detachin (Genlantis, San Diego) for 3 minutes and then resuspended in Serum Free Medium (EX-CELL® ACF CHO Medium for Cell Culture (Sigma-Aldrich) supplemented with 0.04 mg/mL soybean trypsin Inhibitor and 25 mM HEPES (all components supplied by Sigma-Aldrich, St. Louis, MO) and allowed to recover for a minimum of 20 minutes in the onboard QStirrer. All experiments were performed at ambient temperature. Intracellular solution contained (mM): CsCl, 50; CsF, 90; MgCl2, 2; EGTA, 5; HEPES, 10; pH adjusted to 7.2 with CsOH. Extracellular solution contained (mM): NaCl, 137; KCl, 4; CaCl2), 3.8; MgCl2, 1; HEPES, 10; Glucose, 10; pH adjusted to 7.4 with NaOH. [LEFT OUT].
Compounds were tested in an interleaved manner across two cohorts of wells to develop an aggregate 8-point concentration response curve. Final concentrations include 0.1% DMSO and 0.03% pluronic Acid. In general, the concentration range spans a range from 0.01-300 nM. Compounds were diluted 1:10 with extracellular solution within their respective cohort. DMSO (0.1% by volume) served as a vehicle control to ascertain assay performance.
(§1) Whole cell patch clamp recordings were conducted according to Sophion standard procedure for QPatch II®. Cells were held at a holding potential of −120 mV. A depolarizing step to 10 mV for 30 ms was applied to elicit inward Na^+ currents. Inter-sweep interval was 15 sec. Following establishment of the whole-cell configuration in extracellular solution, cells were washed twice in extracellular solution containing 0.1% DMSO and 0.03% pluronic acid to stabilize the baseline current. Compounds were then applied by the QPatch II system into each well in an ascending manner within cohort and the current was recorded for five minutes for each concentration. Percent of current remaining was determined by taking the average of the last 5 sweeps within each concentration and normalizing to the latest pre-compound saline period. The potency (IC50) values of the compounds were only assessed against resting state block. Wells whose initial sodium current magnitude were below 2 nA or whole cell resistance fell below 100 MΩ were excluded from analysis.
as §1, with “MO” for “MΩ”, “analysis. […]” for “analysis.”

T1 sequence (Q9Y5Y9 whole entry): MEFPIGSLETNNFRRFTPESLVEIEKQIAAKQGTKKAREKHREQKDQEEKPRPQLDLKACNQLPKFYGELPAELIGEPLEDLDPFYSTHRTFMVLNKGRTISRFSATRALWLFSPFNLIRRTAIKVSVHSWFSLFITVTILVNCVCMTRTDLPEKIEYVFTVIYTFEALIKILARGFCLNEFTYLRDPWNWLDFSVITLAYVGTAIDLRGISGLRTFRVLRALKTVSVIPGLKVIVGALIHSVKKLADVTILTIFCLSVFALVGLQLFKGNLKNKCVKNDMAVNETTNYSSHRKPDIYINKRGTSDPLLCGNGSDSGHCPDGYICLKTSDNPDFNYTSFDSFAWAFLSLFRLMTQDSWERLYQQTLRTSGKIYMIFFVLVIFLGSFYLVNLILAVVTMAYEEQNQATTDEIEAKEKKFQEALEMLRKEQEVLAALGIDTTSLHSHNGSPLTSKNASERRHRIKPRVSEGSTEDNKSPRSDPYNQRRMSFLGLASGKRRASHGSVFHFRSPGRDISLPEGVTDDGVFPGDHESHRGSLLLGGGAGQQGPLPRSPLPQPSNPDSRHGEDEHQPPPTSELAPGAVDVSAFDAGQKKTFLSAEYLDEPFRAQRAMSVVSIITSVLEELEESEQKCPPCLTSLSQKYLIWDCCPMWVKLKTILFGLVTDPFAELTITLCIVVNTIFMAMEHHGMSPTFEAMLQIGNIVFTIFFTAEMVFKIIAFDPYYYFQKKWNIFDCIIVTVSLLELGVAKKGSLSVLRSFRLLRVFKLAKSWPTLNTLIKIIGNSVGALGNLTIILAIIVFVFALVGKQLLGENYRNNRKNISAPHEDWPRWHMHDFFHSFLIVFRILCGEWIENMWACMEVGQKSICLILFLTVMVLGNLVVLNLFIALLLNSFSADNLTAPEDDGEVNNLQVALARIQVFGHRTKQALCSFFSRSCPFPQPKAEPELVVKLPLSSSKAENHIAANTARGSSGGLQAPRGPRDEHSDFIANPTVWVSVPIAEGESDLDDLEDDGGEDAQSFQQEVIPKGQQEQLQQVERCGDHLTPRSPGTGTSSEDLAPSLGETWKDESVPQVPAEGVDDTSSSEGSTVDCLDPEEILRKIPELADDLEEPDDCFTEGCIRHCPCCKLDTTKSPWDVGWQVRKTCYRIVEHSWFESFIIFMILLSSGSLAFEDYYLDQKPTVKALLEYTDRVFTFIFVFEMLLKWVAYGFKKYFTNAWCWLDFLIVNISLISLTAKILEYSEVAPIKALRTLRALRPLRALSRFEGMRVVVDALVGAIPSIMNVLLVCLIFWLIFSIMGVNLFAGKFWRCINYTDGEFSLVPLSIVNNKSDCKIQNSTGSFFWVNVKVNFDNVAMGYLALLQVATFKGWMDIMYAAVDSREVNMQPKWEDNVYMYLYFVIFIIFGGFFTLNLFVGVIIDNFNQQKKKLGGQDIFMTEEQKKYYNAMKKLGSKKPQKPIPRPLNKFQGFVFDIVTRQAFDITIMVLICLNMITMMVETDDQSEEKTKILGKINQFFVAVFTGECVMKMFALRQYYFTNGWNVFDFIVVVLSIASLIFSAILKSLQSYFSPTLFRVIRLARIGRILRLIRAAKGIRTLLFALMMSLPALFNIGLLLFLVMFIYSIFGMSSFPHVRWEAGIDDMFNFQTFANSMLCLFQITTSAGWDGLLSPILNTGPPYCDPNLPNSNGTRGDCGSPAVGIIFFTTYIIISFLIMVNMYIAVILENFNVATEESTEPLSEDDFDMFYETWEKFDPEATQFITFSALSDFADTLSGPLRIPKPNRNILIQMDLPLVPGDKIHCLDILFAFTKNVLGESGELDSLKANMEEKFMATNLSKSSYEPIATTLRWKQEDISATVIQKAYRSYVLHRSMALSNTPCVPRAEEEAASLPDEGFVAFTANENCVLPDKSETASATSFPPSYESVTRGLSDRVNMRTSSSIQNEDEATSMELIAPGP
T1 sequence (Q07699 19-218 partner): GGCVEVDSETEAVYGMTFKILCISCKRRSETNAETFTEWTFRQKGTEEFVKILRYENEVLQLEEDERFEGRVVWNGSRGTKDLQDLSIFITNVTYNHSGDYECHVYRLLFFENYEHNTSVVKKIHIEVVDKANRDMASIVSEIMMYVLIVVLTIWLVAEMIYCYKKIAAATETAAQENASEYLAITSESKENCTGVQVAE

Compared with `CNCCCS(=N)(=O)c1cccc(NC(=O)c2c(Oc3ccc(C#N)cc3OC)ncc(C(F)(F)F)c2C)c1` (stereo not drawn) [Example 60C], `COc1cc(C#N)ccc1Oc1ncc(C(F)(F)F)c(C)c1C(=O)Nc1cccc([S@](=N)(=O)CCCO)c1` [Example 57C] is higher in IC50: under 5 nM for the first, 5 to 50 nM for the second. The first is the more potent here.

First: Cc1nc(F)ccc1Oc1cc(C(F)(F)F)ccc1C(=O)Nc1ccc(F)c([S@](C)(=N)=O)c1 [Example 30A]
Second: Cc1nc(F)ccc1Oc1cc(C(F)(F)F)ccc1C(=O)Nc1ccc(F)c([S@@](C)(=N)=O)c1 [Example 29A]
The IC50 of the first is lower: 100 to 200 nM for the first, over 200 nM for the second. The first is the more potent here.

First: Cc1nc(F)ccc1Oc1cc(C(F)(F)F)ccc1C(=O)Nc1cccc([S@@](C)(=N)=O)c1 [Example 31A]
Second: Cc1nc(F)ccc1Oc1cc(C(F)(F)F)ccc1C(=O)Nc1ccnc([S@](C)(=N)=O)c1 [Example 28A]
The IC50 of the first is lower: 100 to 200 nM for the first, over 200 nM for the second.

`Cc1nc(F)ccc1Oc1ncc(C(F)(F)F)c(C)c1C(=O)Nc1cc(S(C)(=N)=O)ccn1` (stereo not drawn) [Example 63C] and `Cc1nc(F)ccc1Oc1ncc(C(F)(F)F)c(C)c1C(=O)Nc1cc(S(=N)(=O)CCCO)ccn1` (stereo not drawn) [Example 49C] cannot be ordered by IC50: over 200 nM for the first, over 200 nM for the second.

`COc1cc(C#N)ccc1Oc1ncc(C(F)(F)F)c(C)c1C(=O)Nc1cccc(S(=N)(=O)CCCN(C)C)c1` (stereo not drawn) [Example 59C] and `COc1cc(C#N)ccc1Oc1ncc(C(F)(F)F)c(C)c1C(=O)Nc1cccc([S@@](=N)(=O)CCCO)c1` [Example 58C] fall in the same range of IC50: 5 to 50 nM for the first, 5 to 50 nM for the second.

Compared with `Cc1cc(F)ncc1Oc1cc(C(F)(F)F)c(Cl)cc1C(=O)Nc1ccc(F)c([S@](C)(=N)=O)c1` [Example 24A], `COc1cc(C#N)ccc1Oc1cc(C(F)(F)F)c(Cl)cc1C(=O)Nc1ccc(F)c([S@](C)(=N)=O)c1` [Example 8A, (R)-5-chloro-2-(4-cyano-2-methoxyphenoxy)-N-(4-fluoro-3-(S-methylsulfonimidoyl)phenyl)-4-(trifluoromethyl)benzamide] is lower in IC50: 100 to 200 nM for the first, 5 to 50 nM for the second.

`Cc1cc(F)ccc1Oc1ncc(C(F)(F)F)c(C)c1C(=O)Nc1cccc(S(=N)(=O)CCCN(C)C)c1` (stereo not drawn) [Example 55C] and `CNCCCS(=N)(=O)c1cccc(NC(=O)c2c(Oc3ccc(F)cc3C)ncc(C(F)(F)F)c2C)c1` (stereo not drawn) [Example 56C] fall in the same range of IC50: 5 to 50 nM for the first, 5 to 50 nM for the second.

First: COc1cc(C#N)ccc1Oc1cc(C(F)(F)F)c(Cl)cc1C(=O)Nc1cccc([S@](C)(=N)=O)c1 [Example 27A]
Second: COc1cc(C#N)ccc1Oc1cc(C(F)(F)F)c(Cl)cc1C(=O)Nc1ccnc([S@](C)(=N)=O)c1 [Example 12A, (R)-5-chloro-2-(4-cyano-2-methoxyphenoxy)-N-(2-(S-methylsulfonimidoyl)pyridin-4-yl)-4-(trifluoromethyl)benzamide]
The IC50 of the first is higher: over 200 nM for the first, 5 to 50 nM for the second. The second is the more potent here.

First: Cc1nc(F)ccc1Oc1ncc(C(F)(F)F)c(C)c1C(=O)Nc1cccc([S@](=N)(=O)CCO)c1 [Example 67C]
Second: Cc1nc(F)ccc1Oc1ncc(C(F)(F)F)c(C)c1C(=O)Nc1cccc([S@@](=N)(=O)CCO)c1 [Example 66C]
The IC50 of the first is lower: 5 to 50 nM for the first, 50 to 100 nM for the second. The first is the more potent here.

`Cc1nc(F)ccc1Oc1ncc(C(F)(F)F)c(C)c1C(=O)Nc1cccc([S@](=N)(=O)CCN(C)C)c1` [Example 76C] and `Cc1nc(F)ccc1Oc1ncc(C(F)(F)F)c(C)c1C(=O)Nc1cccc([S@](=N)(=O)CCCN(C)C)c1` [Example 73C] fall in the same range of IC50: 5 to 50 nM for the first, 5 to 50 nM for the second.

`Cc1nc(F)ccc1Oc1ncc(C(F)(F)F)c(C)c1C(=O)Nc1cccc(S(=O)(=O)CCCO)c1` [Example 70C] and `Cc1nc(F)ccc1Oc1ncc(C(F)(F)F)c(C)c1C(=O)Nc1cccc([S@@](=N)(=O)CCCO)c1` [Example 68C] fall in the same range of IC50: 100 to 200 nM for the first, 100 to 200 nM for the second.

Compared with `Cc1nc(F)ccc1Oc1ncc(C(F)(F)F)c(C)c1C(=O)Nc1cccc([S@@]2(=O)=NCCC2)c1` [Example 80C], `CNCC[S@](=N)(=O)c1cccc(NC(=O)c2c(Oc3ccc(F)nc3C)ncc(C(F)(F)F)c2C)c1` [Example 65C] is lower in IC50: 100 to 200 nM for the first, 5 to 50 nM for the second. The second is the more potent here.

`Cc1nc(F)ccc1Oc1ncc(C(F)(F)F)c(C)c1C(=O)N(C)c1cccc([S@@](C)(=N)=O)c1` [Example 47C, (S)-2-((6-fluoro-2-methylpyridin-3-yl)oxy)-N,4-dimethyl-N-(3-(S-methylsulfonimidoyl)phenyl)-5-(trifluoromethyl)nicotinamide] and `Cc1nc(F)ccc1Oc1ncc(C(F)(F)F)c(C)c1C(=O)N(C)c1cccc([S@](C)(=N)=O)c1` [Example 46C, (R)-2-((6-fluoro-2-methylpyridin-3-yl)oxy)-N,4-dimethyl-N-(3-(S-methylsulfonimidoyl)phenyl)-5-(trifluoromethyl)nicotinamide] cannot be ordered by IC50: over 200 nM for the first, over 200 nM for the second.

`Cc1c(C(F)(F)F)cnc(Oc2ccc(F)nc2CO)c1C(=O)Nc1cccc([S@@](C)(=N)=O)c1` [Example 83C] and `Cc1c(C(F)(F)F)cnc(Oc2ccc(F)nc2CO)c1C(=O)Nc1cccc([S@](C)(=N)=O)c1` [Example 89C] cannot be ordered by IC50: over 200 nM for the first, over 200 nM for the second.

`CNCCCS(=O)(=O)c1cccc(NC(=O)c2c(Oc3ccc(F)nc3C)ncc(C(F)(F)F)c2C)c1` [Example 71C] and `Cc1nc(F)ccc1Oc1ncc(C(F)(F)F)c(C)c1C(=O)Nc1cccc([S@@](=N)(=O)CCCN(C)C)c1` [Example 72C] fall in the same range of IC50: 5 to 50 nM for the first, 5 to 50 nM for the second.

Same assay, conditions: P1, resting state block; Nav1.8/β1 HEK293 cells, holding potential −120 mV; first set of compounds; read-out: P1 (IC50, resting state block)

First: Cc1cc(F)ncc1Oc1cc(C(F)(F)F)c(Cl)cc1C(=O)Nc1ccc(F)c([S@@](C)(=N)=O)c1 [Example 23A]
Second: Cc1cc(F)ncc1Oc1cc(C(F)(F)F)c(Cl)cc1C(=O)Nc1cccc([S@](C)(=N)=O)c1 [Example 22A]
The IC50 of the first is higher: over 200 nM for the first, 50 to 100 nM for the second.

Compared with `COc1cc(C#N)ccc1Oc1cc(C(F)(F)F)c(Cl)cc1C(=O)Nc1ccnc([S@@](C)(=N)=O)c1` [Example 15A], `COc1cc(Br)ccc1Oc1cc(C(F)(F)F)c(Cl)cc1C(=O)Nc1ccnc([S@@](C)(=N)=O)c1` [Example 16A] is lower in IC50: 5 to 50 nM for the first, under 5 nM for the second. The second is the more potent here.

Same assay, conditions: P1, resting state block; Nav1.8/β1 HEK293 cells, holding potential −120 mV; fourth set of compounds; read-out: P1 (IC50, resting state block)

For `Cc1nc(F)ccc1Oc1ncc(C(F)(F)F)c(C)c1C(=O)Nc1cccc(S2(=O)=NC(=O)CC2)c1` (single isomer, unassigned) [Example 30D, 2-((6-fluoro-2-methylpyridin-3-yl)oxy)-4-methyl-N-(3-(1-oxido-3-oxo-4,5-dihydro-3H-1l6-isothiazol-1-yl)phenyl)-5-(trifluoromethyl)nicotinamide], the IC50 was over 200 nM.
In the case of `Cc1nc(F)ccc1Oc1ncc(C(F)(F)F)c(C)c1C(=O)Nc1cccc(S2(=O)=NC(=O)CC2)c1` (single isomer, unassigned) [Example 31D, 2-((6-fluoro-2-methylpyridin-3-yl)oxy)-4-methyl-N-(3-(1-oxido-3-oxo-4,5-dihydro-3H-1l6-isothiazol-1-yl)phenyl)-5-(trifluoromethyl)nicotinamide], the IC50 is reported as 50 to 100 nM.

Same assay, conditions: P1, resting state block; Nav1.8/β1 HEK293 cells, holding potential −120 mV; third set of compounds; read-out: P1 (IC50, resting state block)

`Cc1nc(F)ccc1Oc1cc(C(F)(F)F)c(Cl)cc1C(=O)Nc1ccnc([S@@](C)(=N)=O)c1` [Example 77C] showed an IC50 of over 200 nM.

What follows are compounds tested against T2, human Nav1.8/b3 (Homo sapiens, UniProt Q9Y5Y9) (assay: Compound Profiling Human NaV1.8/β3 Cell Line—SyncroPatch384PE Assay (automated patch clamp, stably transfected CHO cells)). Conditions: P1 measurement, resting state block; Nav1.8/b3 CHO cells, holding potential −120 mV; first set of compounds; read-out: P1 (IC50, resting state block).
T2 construct: expressed in transfected cells; host or cells: CHO
Assay type: cell-based

T2 sequence (Q9Y5Y9 whole entry): as the sequence (Q9Y5Y9 whole entry) above
T2 sequence (Q9NY72 23-215 partner): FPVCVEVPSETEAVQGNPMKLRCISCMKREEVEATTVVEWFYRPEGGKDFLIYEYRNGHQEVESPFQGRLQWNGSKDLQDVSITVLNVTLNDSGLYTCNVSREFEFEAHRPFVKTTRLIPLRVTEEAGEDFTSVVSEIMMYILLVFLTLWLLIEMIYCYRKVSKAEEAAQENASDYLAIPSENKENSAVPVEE

For `[2H]C([2H])([2H])c1nc(F)ccc1Oc1cc(C(F)(F)F)c(Cl)cc1C(=O)Nc1ccnc([S@](C)(=N)=O)c1` [Example 13A, (R)-5-chloro-2-((6-fluoro-2-(methyl-d3)pyridin-3-yl)oxy)-N-(2-(S-methylsulfonimidoyl)pyridin-4-yl)-4-(trifluoromethyl)benzamide], the IC50 was under 5 nM.

Same assay, conditions: P2 measurement, inactivated state block; Nav1.8/b3 CHO cells, inactivation step −35 mV 10 sec; first set of compounds; read-out: P2 (IC50, inactivated state block)

`[2H]C([2H])([2H])c1nc(F)ccc1Oc1cc(C(F)(F)F)c(Cl)cc1C(=O)Nc1ccnc([S@](C)(=N)=O)c1` [Example 13A, (R)-5-chloro-2-((6-fluoro-2-(methyl-d3)pyridin-3-yl)oxy)-N-(2-(S-methylsulfonimidoyl)pyridin-4-yl)-4-(trifluoromethyl)benzamide] was tested, and the IC50 was under 5 nM.
